Data set [1] relates to TGF-β types I and II receptors. The settings on record: cited from earlier work.
For a further data set, the system named is let-7 family miRNAs. The experiment in a line: qRT-PCR let-7 miRNA expression in endothelial cells. It is filed as cell-based, human. Particulars: normal EC (HUAEC); U0126 at 10 μM. As to the method:
Quantitative PCR analysis of 88 miRNA was performed using Human Cell Differentiation & Development RT^2 Profiler™ PCR Arrays (MAH-103A, QIAGEN) following the manufacturer's protocol. Validation of microRNA array data was performed with the RT^2 miRNA qPCR Assays and RT-PCR Primer Sets according to the manufacturer's instructions (QIAGEN). Primers for human mature let-7a (MPH00001A), let-7b (MPH00002A), let-7c (MPH00003A), let-7d (MPH00004A), let-7e (MPH00005A), let-7f (MPH00006A), let-7g (MPH00007A), mir-98 (MPH00480A), SNORD47 (MPH01660A) were from QIAGEN. Primers for mouse mature let-7a (MPM00483A), let-7b (MPM00484A), let-7c (MPM485A), let-7d (MPM00486A), let-7e (MPM00487A), let-7f (MPM00488A), let-7g (MPM00489A), let-7i (MPM00490A), mir-98 (MPM00875A) were from QIAGEN. Individual miRNA expression was normalized in relation to expression or small nuclear U6B RNA, a commonly used internal control for miRNA quantification assay. PCR amplification consisted of 10 min of an initial denaturation step at 95° C., followed by 45 cycles of PCR at 95° C. for 30 s, 60° C. for 30 s.
Recombinant human FGF2 (R&D) and TGFβ1 (Peprotech) were reconstituted in 0.1% BSA/PBS. U0126 (Sigma), a MEK inhibitor, was reconstituted in DMSO and used at a final concentration of 10 μM. […]

Another data set has as its system Smad2/3 phosphorylation. The settings on record: cited from earlier work.
For data set [2] the following is noted: doses of 40 mg and 80 mg; cited from earlier work.
For the next data set, the system named is mammary epithelial cells. The settings on record: cited from earlier work.
In data set [3] the test system is TGF-β1-induced smad2/3 nuclear localization. Particulars: cited from earlier work.
In another data set the test system is HUAEC. The experiment in a line: qRT-PCR mRNA expression of TGFβ signaling and Endo-MT markers in endothelial cells. The format is cell-based, human. Particulars: primary EC in vitro following FRS2 knockdown; lentiviral let-7 expression. From the text: Human 293T T17 cells (ATCC CRL-11268) were maintained in Dulbecco's modified Eagle's medium (Gibco) with 10% fetal bovine serum (Invitrogen) and penicillinstreptomycin (Gibco). Primary human mammary epithelial cells (HuMEC, Invitrogen), were maintained in HuMEC basal serum free medium with HuMEC supplement (Invitrogen 12754-016) and bovine pituitary extract (Invitrogen 13028-014). Human foreskin cells (ATCC CRL-1079Sk) were maintained in Minimum Essential Medium (ATCC) with 10% fetal bovine serum (Hyclone), β-mercaptoethanol (Sigma), and penicillin-streptomycin (Gibco). Primary human atrial cells (passage 3-5; gift from Y. Qyang, Yale University School of Medicine) were maintained in Dulbecco's modified Eagle's medium (Gibco) with 10% fetal bovine serum (Invitrogen), L-glutamine (Gibco), Sodium pyruvate (Gibco), Non-essential amino acid (Gibco), and penicillin-streptomycin (Gibco). HUAEC (human umbilical artery endothelial cells, passage 5-10, Lonza) were cultured in EBM-2 supplemented with EGM-2-MV bullet kit (Lonza). HUVEC (human umbilical vein endothelial cells, passage 3-7, Yale Vascular Biology and Therapeutics) were cultured in M199 with ECGS, supplemented with 20% FBS (Sigma), L-glutamine (Gibco), and penicillin-streptomycin (Gibco). Culture vessels were coated with 0.1% gelatin (Sigma) for 30 min at 37° C. immediately prior to cell seeding. Primary mouse endothelial cells were isolated from the heart using rat anti-mouse CD31 antibody and Dynabeads (Invitrogen) as previously described (Partovian C, et al. Mol Cell. 32(1):140 (2008)).
RNA was isolated using RNeasy® plus Mini Kit (Qiagen) and converted to cDNA using iScript™ cDNA synthesis kit (Bio-Rad). Quantitative real-time PCR (qRT-PCR) was performed using Bio-Rad […] (Bio-Rad) by mixing equal amount of eDNAs, iQ™ SYBR® Green Supermix (Bio-Rad) and gene specific primers. All reactions were done in a 25 μl reaction volume in duplicate. Data were normalized to endogenous β-actin. Values are expressed as fold change in comparison to control. Mouse TGFβ gene expression was quantified via qRT-PCR with TaqMan® Gene Expression Assays (Mm00441726_m1; Applied Biosystems) and HPRT (Mm00441258_1; Applied Biosystems) as endogenous control followed the manufacturer's recommendation. Quantitative PCR analysis of 84 TGFβ and epithelial to mesenchymal transition (EMT) related genes were performed using Human TGFβ BMP signaling pathway (PAHS-035D, QIAGEN) and Human Epithelial to Mesenchymal Transition (PAHS-090D, QIAGEN) RT^2 Profiler™ PCR Arrays following the manufacturer's protocol. RT^2 Profiler™ PCR arrays were run on a Bio-Rad CFX96 machine (Bio-Rad). Duplicate arrays were run per condition for control and FRS2 knockdown human umbilical arterial endothelial cells (HUAEC). Data analysis was performed using the manufacturer's integrated web-based software package for the PCR Array System using cycle threshold (Ct)-based fold-change calculations.
Recombinant human FGF2 (R&D) and TGFβ1 (Peprotech) were reconstituted in 0.1% BSA/PBS. U0126 (Sigma), a MEK inhibitor, was reconstituted in DMSO and used at a final concentration of 10 μM. SB431542 (Sigma), a TGFBR1 kinase inhibitor, was reconstituted in DMSO and used at a final concentration of 10 μM in cell culture. Actinomycin D (Sigma), a DNA transcription suppressor, was reconstituted in acetone and used at a final concentration of 10 μg/ml in cell culture. […]

Take `CCCCc1nc(Cl)c(CO)n1Cc1ccc(-c2ccccc2-c2nnn[nH]2)cc1` [Losartan, (2-butyl-4-chloro-1-{[2′-(1H-tetrazol-5-yl)biphenyl-4-yl]methyl}-1H-imidazol-5-yl)methanol]: in data set [1], the “Expression of TGF-β types I and II receptors” value is “downregulate”.
On to FGF2: Recombinant human FGF2 (R&D), for which the “Expression of let-7 family miRNAs” value in the data set on let-7 family miRNAs is on record as “time dependent increase”.
Take `Cc1cccc(-c2nc(C34CCC(C(N)=O)(CC3)CC4)[nH]c2-c2ccc3c(c2)OCO3)n1` [SM16, 4-(5-(benzo[d][1,3]dioxol-5-yl)-4-(6-methylpyridin-2-yl)-1H-imidazol-2-yl)bicyclo[2.2.2]octane-1-carboxamide]: the “TGF-β and activin-induced Smad2/3 phosphorylation” value with Smad2/3 phosphorylation is “blocks”.
On to `Cc1cccc(-c2nn3c(c2-c2ccnc4ccc(C(N)=O)cc24)CCC3)n1` [LY2157299, 4-(2-(6-methylpyridin-2-yl)-5,6-dihydro-4H-pyrrolo[1,2-b]pyrazol-3-yl)quinoline-6-carboxamide], for which the Tolerability entry in data set [2] is “well tolerated”.
On to `N#CC(=C(/N)Sc1ccccc1N)/C(C#N)=C(\N)Sc1ccccc1N` [U0126], for which the “Expression of let-7 family miRNAs” value in the data set on let-7 family miRNAs is given as “decrease”.
As to `Cc1cccc(-c2nc(NCc3cccc(C#N)c3)sc2-c2ccc3ncnn3c2)n1` [EW-7203, 3((5-([1,2,4]triazolo[1,5-a]pyridin-6-yl)-4-(6-methylpyridin-2-yl)thiazol-2-ylamino)methyl)benzonitrile], in the data set with mammary epithelial cells, the Endo-MT entry was “inhibits” and the “TGF-β1-induced Smad signaling” value is “inhibits”.
On to `Cc1cccc(-c2[nH]c(C(C)(C)C)nc2-c2ccc3nccnc3c2)n1` [SB525334, 6-[2-(1,1-Dimethylethyl)-5-(6-methyl-2-pyridinyl)-1H-imidazol-4-yl]quinoxaline], for which, in data set [3], the “TGF-β1-induced mRNA expression” value is on record as “inhibits” and the “TGF-β1-induced smad2/3 nuclear localization” value is given as “inhibits”.

B1: Let-7b/c: let-7b and let-7c miRNAs expressed from lentivirus vector (pre-let-7b, pre-let-7c) (nucleic acid, listed as Homo sapiens)
chain: GCAUCCGGGUUGAGGUAGUAGGUUGUAUGGUUUAGAGUUACACCCUGGGAGUUAACUGUACAACCUUCUAGCUUUCCUUGGAGC
As to B1, in the data set on HUAEC, the “Expression of all SMC and mesenchymal markers” value was “declined to pre-FRS2 knockdown levels”; the “TGFβR1 and SMAD2 expression” value is “fully inhibited”.

(Values after patent US9782522B2, “Compositions and methods for treating and preventing neointimal stenosis” (Yale University, priority 2011, dated 2017).)
